We go through ten compounds from ChEMBL document CHEMBL5465560, “Selectivity Literature for EUbOPEN Chemogenomic Library” (2024).

Experiment [1] addresses T1, 5-hydroxytryptamine receptor 2C (Homo sapiens) (UniProt P28335).
T1 sequence (whole entry): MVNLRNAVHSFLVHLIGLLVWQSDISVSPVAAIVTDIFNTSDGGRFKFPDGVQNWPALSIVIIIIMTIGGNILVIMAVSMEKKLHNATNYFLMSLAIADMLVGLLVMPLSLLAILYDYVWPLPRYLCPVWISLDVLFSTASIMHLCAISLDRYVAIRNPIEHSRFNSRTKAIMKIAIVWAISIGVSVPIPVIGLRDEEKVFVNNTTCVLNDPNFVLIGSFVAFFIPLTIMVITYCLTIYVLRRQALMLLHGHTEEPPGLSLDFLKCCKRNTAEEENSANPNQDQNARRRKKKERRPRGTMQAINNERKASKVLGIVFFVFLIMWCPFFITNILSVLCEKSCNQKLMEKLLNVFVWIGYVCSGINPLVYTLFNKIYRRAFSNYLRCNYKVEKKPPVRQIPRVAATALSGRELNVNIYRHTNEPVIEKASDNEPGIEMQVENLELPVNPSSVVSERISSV
Nature of the experiment: Selectivity interaction (Panel of kinases, GPCRs, ion channels and transporters (enzymatic assay)) EUB0000266bCl HTR2C.

Experiment [2] concerns Tyrosine-protein kinase ABL1 (Homo sapiens), P00519 [E255K]. Conditions: at 10 µM.
Another experiment deals with SRSF protein kinase 1 (Homo sapiens, UniProt Q96SB4). The note with it: at 10 µM.
The target of experiment [3] is T2, Ephrin type-A receptor 1 (Homo sapiens) (UniProt P21709).
T2 sequence (whole entry): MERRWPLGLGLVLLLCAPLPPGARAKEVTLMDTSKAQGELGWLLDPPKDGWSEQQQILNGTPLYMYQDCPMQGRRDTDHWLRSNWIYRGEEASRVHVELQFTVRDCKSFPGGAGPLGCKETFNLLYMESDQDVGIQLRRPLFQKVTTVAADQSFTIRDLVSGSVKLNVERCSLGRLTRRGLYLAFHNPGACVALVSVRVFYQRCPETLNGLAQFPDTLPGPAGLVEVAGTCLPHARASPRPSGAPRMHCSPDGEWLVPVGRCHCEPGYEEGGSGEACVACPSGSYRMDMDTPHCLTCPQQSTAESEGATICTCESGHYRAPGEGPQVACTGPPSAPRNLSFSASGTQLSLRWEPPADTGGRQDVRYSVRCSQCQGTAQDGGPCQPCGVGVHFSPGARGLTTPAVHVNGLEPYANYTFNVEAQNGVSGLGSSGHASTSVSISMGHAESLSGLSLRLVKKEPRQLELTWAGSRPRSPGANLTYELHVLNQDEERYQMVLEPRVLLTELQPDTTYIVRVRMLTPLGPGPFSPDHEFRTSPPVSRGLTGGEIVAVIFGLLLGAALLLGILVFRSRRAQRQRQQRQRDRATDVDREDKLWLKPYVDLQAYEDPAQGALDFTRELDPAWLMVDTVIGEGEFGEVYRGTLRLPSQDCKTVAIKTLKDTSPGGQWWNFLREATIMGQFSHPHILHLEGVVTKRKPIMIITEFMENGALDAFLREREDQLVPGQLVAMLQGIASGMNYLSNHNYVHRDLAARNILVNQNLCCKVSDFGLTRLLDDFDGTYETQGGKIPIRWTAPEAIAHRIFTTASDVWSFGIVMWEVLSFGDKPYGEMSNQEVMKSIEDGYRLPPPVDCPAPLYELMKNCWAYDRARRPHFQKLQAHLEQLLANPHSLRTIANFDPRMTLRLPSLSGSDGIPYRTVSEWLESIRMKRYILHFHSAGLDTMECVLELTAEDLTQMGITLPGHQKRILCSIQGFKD
The note with it: at 10 µM.

In a further experiment the target is Mu-type opioid receptor (Homo sapiens, UniProt P35372). Nature of the experiment: Selectivity interaction (Panel of kinases, GPCRs, ion channels and transporters (enzymatic assay)) EUB0000223bCl OPRM1.
The target of experiment [4] is T3, Alpha-1A adrenergic receptor (Homo sapiens) (UniProt P35348).
T3 sequence (whole entry): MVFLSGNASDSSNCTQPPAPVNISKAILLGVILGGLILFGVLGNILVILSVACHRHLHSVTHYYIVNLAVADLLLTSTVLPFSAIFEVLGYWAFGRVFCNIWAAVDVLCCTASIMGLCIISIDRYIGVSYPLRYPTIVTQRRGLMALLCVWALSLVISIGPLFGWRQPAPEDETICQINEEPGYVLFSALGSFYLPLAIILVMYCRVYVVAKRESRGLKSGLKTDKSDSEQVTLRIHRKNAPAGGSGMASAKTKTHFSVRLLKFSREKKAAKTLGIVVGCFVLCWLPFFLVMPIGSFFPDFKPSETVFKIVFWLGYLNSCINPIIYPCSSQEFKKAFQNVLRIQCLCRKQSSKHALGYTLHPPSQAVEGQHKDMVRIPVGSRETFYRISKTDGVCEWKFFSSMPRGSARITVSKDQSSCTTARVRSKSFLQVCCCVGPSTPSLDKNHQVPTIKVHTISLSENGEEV
Nature of the experiment: Selectivity interaction (Panel of non-epigenetic targets (kinases, GPCRs, ion channels, and transporters, Eurofins) ) EUB0000271b ADRA1A. The note with it: at 1 µM.

The target in experiment [5] is T4, MAP kinase-interacting serine/threonine-protein kinase 2 (Homo sapiens, UniProt Q9HBH9). As to the kind of experiment: Selectivity interaction (KinomeScan (DiscoverX)) EUB0000045b MKNK2.
Experiment [6] has as its target Ribosomal protein S6 kinase alpha-2 (Homo sapiens) (UniProt Q15349). Nature of the experiment: Selectivity interaction (KinomeScan (DiscoverX)) EUB0000666a RPS6KA2. Conditions: at 10 µM.
The target in experiment [7] is T4, MAP kinase-interacting serine/threonine-protein kinase 2. As to the kind of experiment: Selectivity interaction (LanthaScreen Eu Kinase Binding Assay) EUB0001632a MKNK2. The note with it: at 10 µM.
The target in experiment [8] is Casein kinase II subunit alpha' (Homo sapiens) (UniProt P19784). As to the kind of experiment: Selectivity interaction (KinomeScan (DiscoverX)) EUB0000607a CSNK2A2. The note with it: at 10 µM.
In experiment [9] the target is Tyrosine-protein kinase Fer (Homo sapiens) (UniProt P16591). As to the kind of experiment: Selectivity interaction (Kinase panel (KiNativ target engagement assay in Jurkat cells)) EUB0001635a FER. Type of experiment: cell-based. Conditions: Selectivity number of off-targets 0.0, Selectivity number of targets 233.0, Source Knowledge https://www.sciencedirect.com/science/article/pii/S2451945619300674?via%3Dihub, at 1 µM.
Chain of Tyrosine-protein kinase Fer (Homo sapiens) (P16591 whole entry, looked up): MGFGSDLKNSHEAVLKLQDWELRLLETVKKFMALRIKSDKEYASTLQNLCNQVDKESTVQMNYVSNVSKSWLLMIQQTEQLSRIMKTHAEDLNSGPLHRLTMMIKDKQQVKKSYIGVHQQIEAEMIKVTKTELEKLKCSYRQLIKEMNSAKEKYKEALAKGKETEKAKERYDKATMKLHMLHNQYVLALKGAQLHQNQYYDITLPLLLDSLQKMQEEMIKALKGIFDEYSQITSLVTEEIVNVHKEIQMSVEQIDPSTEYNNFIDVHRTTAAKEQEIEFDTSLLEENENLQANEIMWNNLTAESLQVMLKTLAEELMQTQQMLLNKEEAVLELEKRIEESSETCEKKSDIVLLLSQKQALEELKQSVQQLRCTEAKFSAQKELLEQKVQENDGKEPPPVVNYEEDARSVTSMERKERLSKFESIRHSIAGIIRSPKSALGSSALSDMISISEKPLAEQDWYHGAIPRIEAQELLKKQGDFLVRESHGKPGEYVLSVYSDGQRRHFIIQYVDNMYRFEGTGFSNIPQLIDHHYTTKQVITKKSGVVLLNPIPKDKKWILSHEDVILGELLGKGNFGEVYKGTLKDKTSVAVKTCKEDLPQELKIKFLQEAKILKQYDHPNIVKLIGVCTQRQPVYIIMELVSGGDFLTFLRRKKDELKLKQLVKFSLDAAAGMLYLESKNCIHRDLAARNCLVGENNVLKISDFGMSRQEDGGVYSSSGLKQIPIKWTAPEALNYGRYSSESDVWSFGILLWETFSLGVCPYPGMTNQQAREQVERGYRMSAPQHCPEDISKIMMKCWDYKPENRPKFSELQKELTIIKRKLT

T4 sequence (Q9HBH9 whole entry, looked up): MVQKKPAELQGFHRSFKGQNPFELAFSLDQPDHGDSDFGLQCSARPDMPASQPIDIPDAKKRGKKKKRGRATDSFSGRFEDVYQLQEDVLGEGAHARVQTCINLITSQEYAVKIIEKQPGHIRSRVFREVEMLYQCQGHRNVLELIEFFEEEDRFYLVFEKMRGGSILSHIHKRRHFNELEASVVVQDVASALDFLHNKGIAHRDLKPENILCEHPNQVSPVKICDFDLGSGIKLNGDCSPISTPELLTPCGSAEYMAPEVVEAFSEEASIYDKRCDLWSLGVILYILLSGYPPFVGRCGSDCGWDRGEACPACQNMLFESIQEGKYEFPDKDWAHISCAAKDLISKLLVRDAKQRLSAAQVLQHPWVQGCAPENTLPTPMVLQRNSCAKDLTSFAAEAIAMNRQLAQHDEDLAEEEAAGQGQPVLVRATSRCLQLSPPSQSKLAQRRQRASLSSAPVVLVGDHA
Chain of SRSF protein kinase 1 (Q96SB4 whole entry): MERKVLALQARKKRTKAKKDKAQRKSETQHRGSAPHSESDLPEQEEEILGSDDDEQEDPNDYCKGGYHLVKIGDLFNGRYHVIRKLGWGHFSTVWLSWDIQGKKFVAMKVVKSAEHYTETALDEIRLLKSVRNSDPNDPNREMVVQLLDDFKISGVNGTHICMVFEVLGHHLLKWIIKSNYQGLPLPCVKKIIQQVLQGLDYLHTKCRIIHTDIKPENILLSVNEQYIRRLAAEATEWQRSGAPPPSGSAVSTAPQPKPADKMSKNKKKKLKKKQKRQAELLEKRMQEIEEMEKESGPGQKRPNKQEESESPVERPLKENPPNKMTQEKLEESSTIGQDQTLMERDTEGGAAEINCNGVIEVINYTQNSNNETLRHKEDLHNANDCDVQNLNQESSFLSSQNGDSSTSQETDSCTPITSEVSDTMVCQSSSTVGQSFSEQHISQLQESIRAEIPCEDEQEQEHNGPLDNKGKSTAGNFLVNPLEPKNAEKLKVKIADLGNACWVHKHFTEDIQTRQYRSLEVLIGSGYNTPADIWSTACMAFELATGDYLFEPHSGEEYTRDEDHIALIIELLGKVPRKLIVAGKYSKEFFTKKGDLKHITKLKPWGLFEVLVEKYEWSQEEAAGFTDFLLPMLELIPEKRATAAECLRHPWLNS
Chain of Casein kinase II subunit alpha' (Homo sapiens) (P19784 whole entry, looked up): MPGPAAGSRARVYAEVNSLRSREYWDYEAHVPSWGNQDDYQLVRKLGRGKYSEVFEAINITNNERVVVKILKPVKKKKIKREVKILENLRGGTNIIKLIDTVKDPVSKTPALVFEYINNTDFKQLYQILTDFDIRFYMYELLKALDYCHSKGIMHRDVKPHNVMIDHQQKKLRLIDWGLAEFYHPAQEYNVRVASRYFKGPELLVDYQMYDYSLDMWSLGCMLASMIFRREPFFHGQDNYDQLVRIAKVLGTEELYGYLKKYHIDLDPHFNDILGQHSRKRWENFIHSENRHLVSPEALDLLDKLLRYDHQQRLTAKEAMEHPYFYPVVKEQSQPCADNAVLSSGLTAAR
Chain of Ribosomal protein S6 kinase alpha-2 (Homo sapiens) (Q15349 whole entry): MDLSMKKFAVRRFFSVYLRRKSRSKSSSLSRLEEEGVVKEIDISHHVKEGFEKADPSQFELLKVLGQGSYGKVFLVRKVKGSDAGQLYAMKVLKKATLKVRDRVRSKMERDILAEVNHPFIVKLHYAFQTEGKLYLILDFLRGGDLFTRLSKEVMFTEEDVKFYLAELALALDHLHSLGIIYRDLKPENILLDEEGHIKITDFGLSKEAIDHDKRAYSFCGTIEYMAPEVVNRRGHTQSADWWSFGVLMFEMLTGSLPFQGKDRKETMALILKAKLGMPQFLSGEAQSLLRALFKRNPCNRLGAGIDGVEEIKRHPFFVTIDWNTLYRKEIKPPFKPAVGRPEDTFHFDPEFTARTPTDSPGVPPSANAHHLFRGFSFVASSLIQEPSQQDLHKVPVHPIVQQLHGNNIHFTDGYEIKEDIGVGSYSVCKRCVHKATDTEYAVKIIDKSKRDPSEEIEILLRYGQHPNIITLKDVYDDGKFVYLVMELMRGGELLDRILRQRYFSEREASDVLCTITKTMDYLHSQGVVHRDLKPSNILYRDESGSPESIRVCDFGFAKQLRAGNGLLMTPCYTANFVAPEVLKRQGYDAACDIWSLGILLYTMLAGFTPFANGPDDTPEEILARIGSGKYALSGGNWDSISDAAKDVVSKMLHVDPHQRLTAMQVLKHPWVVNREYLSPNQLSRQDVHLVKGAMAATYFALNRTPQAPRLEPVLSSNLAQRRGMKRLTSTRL
Chain of Mu-type opioid receptor (P35372 whole entry): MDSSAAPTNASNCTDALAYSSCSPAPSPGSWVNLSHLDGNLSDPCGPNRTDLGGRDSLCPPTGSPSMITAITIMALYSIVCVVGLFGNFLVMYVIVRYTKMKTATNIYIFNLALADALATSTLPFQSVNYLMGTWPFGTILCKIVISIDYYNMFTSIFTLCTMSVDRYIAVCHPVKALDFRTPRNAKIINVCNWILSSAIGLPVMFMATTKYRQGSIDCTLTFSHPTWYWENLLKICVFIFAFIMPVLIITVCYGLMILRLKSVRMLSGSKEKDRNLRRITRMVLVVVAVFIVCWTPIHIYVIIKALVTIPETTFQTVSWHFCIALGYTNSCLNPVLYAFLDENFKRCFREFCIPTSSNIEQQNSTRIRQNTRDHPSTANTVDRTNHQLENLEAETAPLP
Chain of Tyrosine-protein kinase ABL1 (Homo sapiens), P00519 [E255K] (P00519 whole entry E255K): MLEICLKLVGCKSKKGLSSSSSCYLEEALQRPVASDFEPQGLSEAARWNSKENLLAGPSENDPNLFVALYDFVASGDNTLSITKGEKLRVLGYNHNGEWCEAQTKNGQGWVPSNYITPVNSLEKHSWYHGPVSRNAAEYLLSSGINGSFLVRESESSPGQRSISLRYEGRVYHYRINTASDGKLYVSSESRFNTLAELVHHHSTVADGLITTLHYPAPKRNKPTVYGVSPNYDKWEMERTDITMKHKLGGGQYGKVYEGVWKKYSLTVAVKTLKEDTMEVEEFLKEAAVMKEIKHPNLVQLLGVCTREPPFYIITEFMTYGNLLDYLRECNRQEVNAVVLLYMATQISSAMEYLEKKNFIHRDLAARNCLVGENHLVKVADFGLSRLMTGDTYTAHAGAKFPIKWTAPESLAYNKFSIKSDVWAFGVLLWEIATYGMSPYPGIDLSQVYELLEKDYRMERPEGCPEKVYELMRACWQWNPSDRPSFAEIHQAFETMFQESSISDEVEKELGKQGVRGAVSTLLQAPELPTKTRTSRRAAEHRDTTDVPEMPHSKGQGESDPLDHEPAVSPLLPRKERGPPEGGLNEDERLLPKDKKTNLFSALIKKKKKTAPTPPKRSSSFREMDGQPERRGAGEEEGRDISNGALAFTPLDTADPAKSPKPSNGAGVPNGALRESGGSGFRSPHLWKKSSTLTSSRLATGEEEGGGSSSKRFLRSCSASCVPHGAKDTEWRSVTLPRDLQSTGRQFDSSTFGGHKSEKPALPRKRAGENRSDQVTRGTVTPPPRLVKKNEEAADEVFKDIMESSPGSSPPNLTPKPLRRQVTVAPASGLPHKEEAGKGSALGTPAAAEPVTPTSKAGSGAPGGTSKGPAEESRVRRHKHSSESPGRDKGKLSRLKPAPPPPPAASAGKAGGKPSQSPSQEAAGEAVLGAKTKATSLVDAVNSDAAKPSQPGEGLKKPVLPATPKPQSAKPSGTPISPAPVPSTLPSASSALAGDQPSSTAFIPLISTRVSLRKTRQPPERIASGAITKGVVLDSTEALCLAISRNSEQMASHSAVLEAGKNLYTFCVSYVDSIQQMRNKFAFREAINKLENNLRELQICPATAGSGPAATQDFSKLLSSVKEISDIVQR

`CCn1c(-c2nc3cc(C(=O)N4CCCC(N)C4)ccc3n2C)cc2ccccc21` (configuration not stated): the pXC50 in experiment [1] stood at 4.7 M.

As to `Cc1cc([C@@H](C)Nc2ccccc2C(=O)O)c2nc(N3CCOCC3)cc(=O)n2c1` [AZD-6482], the results for the % of control (in [2]; on SRSF protein kinase 1) were 94% and 100%, respectively. In the case of `CCN(CC)CCCCNc1ncc2cc(-c3cc(OC)cc(OC)c3)c(NC(=O)NC(C)(C)C)nc2n1`, the % of control in experiment [3] is 100%. Take `COc1cc(C(=O)N2CC[C@@H](O)[C@@H](N)C2)cc2nc(-c3cc4ccccc4n3CC3CC3)n(C)c12`: the pXC50 at Mu-type opioid receptor was less than 4 M. As for `Cc1cc(C)cc([C@@H]2c3cc(C)ccc3NC(=O)CN2C(=O)c2ccc(Br)s2)c1`, in experiment [4], the % of inhibition came to 4%. As for `C=CC(=O)Nc1cc(-n2c(=O)ccc3cnc4ccc(-c5ccc(NS(C)(=O)=O)cc5)cc4c32)ccc1C`, the % of control amounted to 100% in experiment [5] (at 1 µM) and 52% in experiment [5] (at 10 µM). In [6], `O=C(NOC[C@H](O)CO)c1ccc(F)c(F)c1Nc1ccc(I)cc1F` came in with a % of control of 100%.

In the case of `Cn1cc(-n2cnc3c(NCc4nc5cc(Cl)c(Cl)cc5[nH]4)nc(N4CCOCC4)nc32)cn1`, the % of inhibition in [7] was -36%.

For the compound `CNC(=O)Nc1ccc(-c2nc(N3CC4CCC(C3)O4)c3cnn(C4CCC5(CC4)OCCO5)c3n2)cc1`, the % of control in [8] was found to be 100%. Regarding `C=CC(=O)Nc1ccc(C(=O)Nc2[nH]nc3c2CN(C(=O)N[C@H](CN(C)C)c2ccccc2)C3(C)C)cc1`, the % of engagement in [9] was -6.9%.
